Experimental findings from patent US4690935A, “Inhibition of tumor growth and metastasis with calcium channel blocker compounds” (Wayne State University, priority 1983, dated 1987) are described below.

Entries after “also recorded” stand apart in the source; their conditions may differ. Where two headings read alike, the source gives them in different places.

The test system of one assay is Platelet. As to the kind of experiment: ADP induced platelet aggregation. It is filed as cell-based, human. Conditions: for effect on ADP induced platelet aggregation (in words): higher concentrations. As for the experimental part:
Blood (45 ml) was drawn from the […] vein of healthy, fasted, aspirin free (at least two weeks) human volunteers into a plastic syringe containing 5 ml of 4.8% dextrose with 50 U/ml heparin buffered by 25 mM HEPES, pH 7.5. An 18 gauge needle was used to prevent hemolysis. The heparinized blood was gently mixed by inverting the syringe five times and then the blood was transfused into two 40 ml plastic centrifuge tubes and centrifuged for 10 min at 163×g. The resulting platelet rich plasma (PRP; the supernatant fraction) was decanted using an adjustable SMI pipette set at 6 ml. Platelet poor plasma (PPP) was prepared by centrifugation of PRP for 10 min at 1086×g. Platelet poor plasma was used to standardize the platelet concentration in PRP to 3×10^8 /ml. Platelet concentrations were determined using a Coulter Model ZBI cell counter.
Platelet aggregation was measured photometrically using a Sienco Model DP-247E dual channel aggregometer and recorded on a Sienco Model B-5000 dual channel recorder. Aliquots of PRP (250 microliters at 3×10^8 platelets/ml) were transferred into aggregometry cuvettes and stirred at a constant speed of 800 RPM at 37° C. Platelet aggregation studies were designed and run as individually controlled samples. BAY e 9736 was dissolved in either PEG-400 or […] (DMSO).
BAY e 9736 in PEG-400 alone was aliquoted into the cuvettes prior to the addition of the PRP. Immediately after the addition of the PRP, the cuvettes were placed into the aggregometer. After two minutes (to allow for the stabilization of the platelet preparation and mixing of the BAY e 9736), ADP or tumor cells were added in 20 microliter aliquots to induce platelet aggregation.
Adenosine diphosphate (ADP) was prepared as a 1 mM solution (in distilled water). A 25 microliter aliquot was added to control and BAY e 9736 treated cuvettes containing PRP. The ADP concentration used induces rapid, monophasic platelet aggregation.

The subject of assay [1] is Walker 256 L-Pam tumor cell. As to the kind of experiment: Walker 256 L-Pam tumor cell attachment to plastic. It is filed as cell-based, rat. Conditions: 0.04 mg/ml; for effect on tumor cell adhesion to plastic wells (in words): thirty minutes preincubation; for inhibition at 40 µg/mL: Rattus norvegicus, Walker 256, 1 h, 1 h plating, read-out: % Inhibition vs control (attachment to plastic). As for the experimental part: Walker ^256 L-Pam tumor cells were plated at approximately 5×10^5 cells/flask. The cells were labelled with ^125 I-UDR (iodinated uridine deoxyribonucleic acid) at 0.5 microcuries/ml media (5.0 microcurie/flask). Cells were incubated for approximately 24 hours and the cell count/flask was determined to be 8.14×10^5 cell/flask. The cells from each flask were counted (gamma counter) and found to have an average of 0.24 cpm/cell.
Platelet enhanced tumor cell attachment to plastic was tested using four conditions: tumor cell alone (Condition A), tumor cells plus washed platelets (Condition B), tumor cells plus platelet poor plasma (Condition C) and tumor cells, washed platelets and platelet poor plasma (Condition D).
Walker 256 L-Pam tumor cells obtained from culture are radiolabeled with ^125 I-UDR as described previously. The radiolabeled cells are removed from T-75 flasks with trypsin (2 milliliters of 0.25% trypsin and 0.01% EDTA) in MEM. After two minutes, the flasks are washed 3X with trypsin "quench," 10% fetal calf serum in MEM, to quench and remove the trypsin in order to prevent cell lysis. The tumor cells are removed from the flasks in MEM and adjusted to 2.5×10^5 cells /milliliter. One hundred microliters of the tumor cell suspension (2.5×10^4 cells) were plated in […] tissue culture wells (Costar) and overlaid with 250 microliters of Wash Solution #2 (see Platelet Prep). The cells were incubated at room temperature (approximately 22° C.) for 5 minutes. Following this incubation 10 microliters of 7.35 mg/ml CaCl2 were added to the culture wells, 10 microliters of platelet poor plasma (diluted 1:32 with platelet Wash Solution #2) were added to culture wells for Conditions C and D and 250 microliters of washed platelets (3×10^8 /ml final concentration) were added to culture wells for Conditions B and D. Where appropriate, Wash Solution #2 was added to wells (Conditions A and C) so that all wells had the same final volume of solutions. The wells were incubated for one hour at 37° C. After the one hour incubation, the media containing any unattached tumor cells were removed by aspiration and then the wells were washed 2X with 1 ml of sodium phosphate buffer (PBS). The adhering cells were removed by trypsinization (as described above) and counts per wells determined using a gamma counter. Results were determined as total cpm plated per well.
The effect of BAY e 9736 on Walker 256 L-Pam tumor cell adhesion to plastic wells […] was determined by pretreating monodispersed Walker 256 L-Pam tumor cells with BAY e 9736 dissolved in DMSO prior to plating the cells. Except for the pretreatment, plastic adhesion studies were performed as previously described in the literature. A 8 mg sample of BAY e 9736 was dissolved in 1 ml of DMSO. Five microliters of the 8 mg/ml BAY e 9736 was added to each 1 ml of tumor cells.

Another assay deals with B16a Tumor Cells. As to the kind of experiment: "Experimental" metastasis (lung colonies) induced by tail vein injection of B16a tumor cells. Conditions: oral, mice; for % of Control (mean number of metastatic lesions on lung surface): 1 h before and 1 h after tumor cells, 21 days, x ± SEM, n = 12, control = 100%; for reduction of lung colonies / tail vein metastasis (in words): tail vein injection of B16a. It is filed as in vivo, mouse. From the text:
B16 amelanotic melanoma (B16a) and Walker 256 L-Pam carcinosarcoma were obtained from the Division of Cancer Treatment, Animal and Human Tumor Bank, Mason Research Institute, Worcester, Mass. Tumors were passaged four times after receipt in syngeneic C57BL/6J male mice (B16a) or allogenic Sprague Dawley rats (Walker 256 L-Pam). Passaging involved subcutaneous implantations of tumor pices (diced to approximately 2×2 MM) into the right auxiliary region using a 18 gauge needle. Mice weighing approximately 20 grams (4 to 5 weeks old) were used to passage the B16a cell line and female rats were used to passage the Walker 256 L-Pam cell line. Animals were housed under identical conditions of temperature, feeding, photoperiod, etc. The transplanted tumors were allowed to grow for approximately 14 days following implantation.
The B16a tumor cells, obtained by the previously described procedure of tumor dispersion and tumor cell elutriation were used to test the antimetastatic effect of BAY e 9736.
A 40 mg portion of BAY e 9736 was dissolved in 1 ml of polyethylene glycol (PEG-400). This stock solution was diluted 1:5, 1:10, 1:50 and 1:1000 with PEG-400. C56BL/6J mice weighing an average of 20 grams were injected orally with 0.1 ml of the diluted BAY e 9736 one hour before and one hour after challenge with tumor cells. One hour after the first oral administration of BAY e 9736, the mice were injected via the tail vein with a 3×10^4 B16a tumor cell suspension in 0.05 ml prepared as described previously. The control and treated mice were kept under identical conditions of temperature, feeding) photoperiod, etc. The mice were sacrificed 21 days after tail vein injection of the tumor cells and the lungs were removed, fixed in Bouin's solution and visible bilateral metastasis counted.

Take `COCCOC(=O)C1=C(C)NC(C)=C(C(=O)OC(C)C)C1c1cccc([N+](=O)[O-])c1` (stereo not drawn) [BAY e 9736, 1,4-dihydro-2,6-dimethyl-4-(3' nitrophenyl)-pyridine-3-(beta-methyoxyethylester)-5-(isopropyl ester)]: the “% Inhibition of ADP Induced Platelet Aggregation” value in the assay on Platelet (0.0015 mg/ml final, 0.1 mM ADP) is on record as “No effect”; with Platelet (0.004 mg/ml final (second line so printed, below 0.0015), 0.1 mM ADP), “No effect”; in the assay on Platelet (0.004 mg/ml final, 0.1 mM ADP), “No effect”. The compound further registered an inhibition at 15 µg/mL in the assay on Platelet (Homo sapiens, Platelet, 0.015 mg/ml final, 0.1 mM ADP, printed "No effect to 12%") of no more than 12%. The inhibition at 40 µg/mL worked out at 31 ± 6.2% in the assay with Platelet (Homo sapiens, Platelet, 0.04 mg/ml final, 0.1 mM ADP, x ± SEM, n = 3); 72% in assay [1] (A = tumor cells alone); 50 ± 8.2% in assay [1] (B = tumor cells + platelets); 44 ± 9.2% in assay [1] (C = tumor cells + PPP); 40 ± 7.5% in assay [1] (D = tumor cells + PPP + platelets). The compound also registered an inhibition at 150 µg/mL with Platelet (Homo sapiens, Platelet, 0.15 mg/ml final, 0.1 mM ADP, x ± SEM, n = 3) of 58 ± 11%. In the assay on Platelet (Homo sapiens, Platelet, 0.4 mg/ml final, 0.1 mM ADP, x ± SEM, n = 3), this compound had an inhibition at 400 µg/mL of 69 ± 7.5%. For the same compound, the “effect on ADP induced platelet aggregation (in words)” value is “able to significantly inhibit this aggregation” in the assay on Platelet; “greatly inhibit platelet aggregation induced by tumor cells and ADP” with Platelet (listed as nimodipine). The “effect on tumor cell adhesion to plastic wells (in words)” value in assay [1] was “decreased the percent of cells adhering to the plastic wells; also recorded: significant in all groups tested”; in assay [1] (listed as nimodipine), “decreases or inhibits the adhesion of tumor cells to plastic incubation wells”. Besides, the “% of Control (mean number of metastatic lesions on lung surface)” value in the assay on B16a Tumor Cells (0.2 mg/kg) is listed as 55 ± 5%; in the assay on B16a Tumor Cells (4.0 mg/kg), 60 ± 7%; in the assay on B16a Tumor Cells (20.0 mg/kg), 73 ± 13.7%; in the assay on B16a Tumor Cells (40.0 mg/kg), 74 ± 7.5%. In addition, the “reduction of lung colonies / tail vein metastasis (in words)” value was “effective in reducing the number of lung colonies at all levels examined” in the assay on B16a Tumor Cells and “reduce metastasis induced by tail vein injection” in the assay with B16a Tumor Cells (listed as nimodipine).

For orientation: inhibition means the relative decrease from the control value, in per cent.
